Results published in ChEMBL document CHEMBL4052632 (Eur J Med Chem, 2017).

Columns and labels:
[1] = system: A2780; test: Antitumor activity against human A2780 cells xenografted in BALB/c nude mouse assessed as tumor growth inhibition at 30 mg/kg, ip administered once every 2 days for 14 consecutive days relative to control; assay type: functional; conditions: read-out: TGI
[2] = target: Cyclin-dependent kinase 1/cyclin B1 (Homo sapiens) (UniProt P06493+P14635); test: Inhibition of recombinant human CDK1/CyclinB using Ulight-CFFKNIVTPRTPPPSQGK-amide as substrate at 100 uM after 15 mins in presence of ATP relative to control; assay type: protein-complex assay
[3] = target: Serine/threonine-protein kinase Chk1 (Homo sapiens) (UniProt O14757); test: Inhibition of recombinant human CHK1 using CREBtide as substrate at 100 uM after 30 mins in presence of ATP relative to control
[4] = target: Protein kinase C alpha type (Homo sapiens) (UniProt P17252); test: Inhibition of recombinant human PKCalpha using biotinyl-beta Abeta Abeta AKIQASFRGHMARKK as substrate at 100 uM after 10 mins in presence of ATP relative to control
[5] = target: Dual specificity mitogen-activated protein kinase kinase 1 (Homo sapiens) (UniProt Q02750); test: Inhibition of recombinant human MEK1 using inactivated ERK2 as substrate at 100 uM after 60 mins in presence of ATP relative to control
[6] = species: Homo sapiens; test: Inhibition of human PKA at 100 uM in presence of ATP relative to control
[7] = target: Platelet-derived growth factor receptor beta (Homo sapiens) (UniProt P09619); test: Inhibition of PDGFRbeta (unknown origin) using poly (Glu, Tyr) 4:1 as substrate at 100 uM after 1 hr by ELISA relative to control
[8] = target: Ephrin type-A receptor 2 (Homo sapiens) (UniProt P29317); test: Inhibition of EPH-A2 (unknown origin) using poly (Glu, Tyr) 4:1 as substrate at 100 uM after 1 hr by ELISA relative to control
[9] = target: Proto-oncogene tyrosine-protein kinase Src (Homo sapiens) (UniProt P12931); test: Inhibition of c-Src (unknown origin) using poly (Glu, Tyr) 4:1 as substrate at 100 uM after 1 hr by ELISA relative to control
[10] = target: Tyrosine-protein kinase receptor UFO (Homo sapiens) (UniProt P30530); test: Inhibition of AXL (unknown origin) using poly (Glu, Tyr) 4:1 as substrate at 100 uM after 1 hr by ELISA relative to control
[11] = system: A2780; test: Cell cycle arrest in human A2780 cells assessed as decrease in S phase after 48 hrs by propidium iodide staining based flow cytometry; assay type: functional
[12] = Toxicity in nude BALB/c mouse xenografted with human A2780 cells assessed as body weight loss at 50 mg/kg, ip administered once every 2 days for 14 consecutive days relative to control; assay type: organism-based; conditions: in vivo, 48 h

Dual specificity mitogen-activated protein kinase kinase 1 (Homo sapiens), sequence (Q02750 whole entry): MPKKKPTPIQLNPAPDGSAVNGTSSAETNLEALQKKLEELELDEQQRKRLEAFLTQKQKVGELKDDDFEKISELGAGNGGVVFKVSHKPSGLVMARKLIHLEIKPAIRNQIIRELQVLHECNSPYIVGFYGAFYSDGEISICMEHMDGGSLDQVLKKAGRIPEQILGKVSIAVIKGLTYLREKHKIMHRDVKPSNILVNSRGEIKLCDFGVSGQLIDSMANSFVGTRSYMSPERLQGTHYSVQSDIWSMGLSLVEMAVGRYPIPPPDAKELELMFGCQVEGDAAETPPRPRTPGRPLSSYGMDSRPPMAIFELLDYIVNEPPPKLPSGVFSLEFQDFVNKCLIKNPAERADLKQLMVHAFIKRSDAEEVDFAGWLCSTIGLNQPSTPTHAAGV
Cyclin-dependent kinase 1/cyclin B1 (Homo sapiens), sequence (P06493 whole entry, looked up): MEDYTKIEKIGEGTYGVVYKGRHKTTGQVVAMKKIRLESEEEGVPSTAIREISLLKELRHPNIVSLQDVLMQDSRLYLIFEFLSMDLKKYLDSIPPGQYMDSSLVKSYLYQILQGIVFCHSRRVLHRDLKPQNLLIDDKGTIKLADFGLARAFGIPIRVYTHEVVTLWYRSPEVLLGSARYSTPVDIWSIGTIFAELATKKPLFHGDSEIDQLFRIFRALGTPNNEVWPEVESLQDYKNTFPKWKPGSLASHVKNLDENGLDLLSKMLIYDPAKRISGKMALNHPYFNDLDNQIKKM
Cyclin-dependent kinase 1/cyclin B1 (Homo sapiens), sequence (P14635 whole entry, looked up): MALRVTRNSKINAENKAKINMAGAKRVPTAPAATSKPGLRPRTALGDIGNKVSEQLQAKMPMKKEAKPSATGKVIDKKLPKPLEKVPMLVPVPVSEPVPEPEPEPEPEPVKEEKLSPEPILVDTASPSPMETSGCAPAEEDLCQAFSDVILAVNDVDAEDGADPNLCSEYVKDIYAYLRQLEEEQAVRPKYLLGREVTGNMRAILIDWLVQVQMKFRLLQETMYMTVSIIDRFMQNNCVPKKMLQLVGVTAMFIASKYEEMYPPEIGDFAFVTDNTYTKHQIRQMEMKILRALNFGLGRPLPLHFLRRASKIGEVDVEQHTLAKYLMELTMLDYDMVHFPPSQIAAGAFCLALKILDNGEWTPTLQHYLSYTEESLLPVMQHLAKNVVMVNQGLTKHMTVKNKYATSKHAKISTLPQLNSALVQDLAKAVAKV
Platelet-derived growth factor receptor beta (Homo sapiens), sequence (P09619 whole entry): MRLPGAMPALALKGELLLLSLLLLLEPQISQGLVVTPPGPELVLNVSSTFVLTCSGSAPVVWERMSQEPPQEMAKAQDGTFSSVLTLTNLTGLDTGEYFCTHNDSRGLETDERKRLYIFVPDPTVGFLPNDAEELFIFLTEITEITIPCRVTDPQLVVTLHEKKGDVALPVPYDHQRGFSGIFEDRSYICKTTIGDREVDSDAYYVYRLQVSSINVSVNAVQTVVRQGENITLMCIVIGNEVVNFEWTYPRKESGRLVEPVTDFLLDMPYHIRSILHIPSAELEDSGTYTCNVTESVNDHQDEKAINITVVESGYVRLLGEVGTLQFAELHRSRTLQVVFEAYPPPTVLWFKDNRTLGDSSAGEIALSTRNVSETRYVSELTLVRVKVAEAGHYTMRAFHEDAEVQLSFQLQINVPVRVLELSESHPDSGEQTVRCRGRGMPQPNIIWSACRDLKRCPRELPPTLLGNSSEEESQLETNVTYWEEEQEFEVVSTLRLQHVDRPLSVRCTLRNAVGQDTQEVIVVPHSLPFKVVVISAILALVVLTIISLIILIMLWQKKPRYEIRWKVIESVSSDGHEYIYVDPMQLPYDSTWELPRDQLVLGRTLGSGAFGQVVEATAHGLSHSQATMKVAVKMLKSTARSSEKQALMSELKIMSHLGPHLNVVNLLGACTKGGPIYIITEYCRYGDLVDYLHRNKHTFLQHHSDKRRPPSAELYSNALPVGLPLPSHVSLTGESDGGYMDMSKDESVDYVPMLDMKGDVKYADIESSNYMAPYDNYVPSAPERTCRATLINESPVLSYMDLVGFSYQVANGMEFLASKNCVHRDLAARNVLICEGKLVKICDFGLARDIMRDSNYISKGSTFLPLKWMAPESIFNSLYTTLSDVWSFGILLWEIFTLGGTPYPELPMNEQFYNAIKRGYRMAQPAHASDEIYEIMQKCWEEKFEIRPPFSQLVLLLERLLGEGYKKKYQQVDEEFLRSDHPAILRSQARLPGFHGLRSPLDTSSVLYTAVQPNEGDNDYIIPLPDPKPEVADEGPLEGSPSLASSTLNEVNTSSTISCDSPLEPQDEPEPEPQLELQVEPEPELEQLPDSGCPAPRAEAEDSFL
Serine/threonine-protein kinase Chk1 (Homo sapiens), sequence (O14757 whole entry): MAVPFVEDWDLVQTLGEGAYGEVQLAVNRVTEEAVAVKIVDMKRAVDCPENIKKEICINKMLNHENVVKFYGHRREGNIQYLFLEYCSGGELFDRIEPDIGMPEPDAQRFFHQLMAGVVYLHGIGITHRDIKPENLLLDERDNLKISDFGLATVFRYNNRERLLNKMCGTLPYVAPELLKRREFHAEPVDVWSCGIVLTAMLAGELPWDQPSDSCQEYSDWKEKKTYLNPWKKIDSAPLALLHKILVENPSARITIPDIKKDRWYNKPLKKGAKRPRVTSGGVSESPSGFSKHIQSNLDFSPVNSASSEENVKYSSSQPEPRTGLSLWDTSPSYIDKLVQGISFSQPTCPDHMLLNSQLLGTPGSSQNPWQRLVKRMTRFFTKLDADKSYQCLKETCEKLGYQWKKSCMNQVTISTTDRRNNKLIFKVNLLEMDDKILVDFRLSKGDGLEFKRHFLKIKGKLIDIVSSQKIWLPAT
Proto-oncogene tyrosine-protein kinase Src (Homo sapiens), sequence (P12931 2-536 limits assumed): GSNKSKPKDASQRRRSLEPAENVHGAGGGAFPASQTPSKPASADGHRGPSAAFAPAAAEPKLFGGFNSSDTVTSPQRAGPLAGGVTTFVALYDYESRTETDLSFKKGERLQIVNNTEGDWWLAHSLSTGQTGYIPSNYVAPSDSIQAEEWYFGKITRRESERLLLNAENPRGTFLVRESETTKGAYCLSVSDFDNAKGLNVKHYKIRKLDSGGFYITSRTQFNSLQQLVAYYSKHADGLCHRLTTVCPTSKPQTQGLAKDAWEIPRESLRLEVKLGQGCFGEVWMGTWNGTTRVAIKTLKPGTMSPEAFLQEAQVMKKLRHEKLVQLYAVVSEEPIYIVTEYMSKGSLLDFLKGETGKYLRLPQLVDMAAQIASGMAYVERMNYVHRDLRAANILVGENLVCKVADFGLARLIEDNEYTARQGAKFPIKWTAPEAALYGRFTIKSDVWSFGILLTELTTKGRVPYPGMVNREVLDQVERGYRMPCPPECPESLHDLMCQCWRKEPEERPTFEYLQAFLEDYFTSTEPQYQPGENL
Tyrosine-protein kinase receptor UFO (Homo sapiens), sequence (P30530 whole entry): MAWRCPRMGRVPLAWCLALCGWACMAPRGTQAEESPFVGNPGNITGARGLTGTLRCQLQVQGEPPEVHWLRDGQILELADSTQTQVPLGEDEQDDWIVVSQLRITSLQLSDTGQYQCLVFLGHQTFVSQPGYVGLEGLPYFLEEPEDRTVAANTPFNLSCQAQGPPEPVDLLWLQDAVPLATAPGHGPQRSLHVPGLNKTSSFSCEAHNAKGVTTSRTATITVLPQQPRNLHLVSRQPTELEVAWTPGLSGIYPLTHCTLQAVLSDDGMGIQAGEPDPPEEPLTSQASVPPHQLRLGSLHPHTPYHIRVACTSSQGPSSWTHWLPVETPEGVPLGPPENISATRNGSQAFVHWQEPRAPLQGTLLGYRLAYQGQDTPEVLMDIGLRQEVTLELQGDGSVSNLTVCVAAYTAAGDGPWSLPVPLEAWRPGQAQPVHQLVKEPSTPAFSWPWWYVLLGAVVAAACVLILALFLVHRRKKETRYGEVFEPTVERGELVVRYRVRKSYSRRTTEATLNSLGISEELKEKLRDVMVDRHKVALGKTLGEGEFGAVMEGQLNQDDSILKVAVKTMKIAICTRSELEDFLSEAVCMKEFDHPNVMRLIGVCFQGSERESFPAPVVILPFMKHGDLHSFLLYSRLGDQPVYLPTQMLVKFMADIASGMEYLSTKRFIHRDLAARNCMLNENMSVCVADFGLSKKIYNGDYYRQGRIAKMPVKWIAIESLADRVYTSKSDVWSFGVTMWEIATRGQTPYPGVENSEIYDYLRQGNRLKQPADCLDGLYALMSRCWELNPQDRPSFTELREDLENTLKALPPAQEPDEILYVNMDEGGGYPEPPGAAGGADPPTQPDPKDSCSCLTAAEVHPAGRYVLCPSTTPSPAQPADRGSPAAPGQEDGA

CCCCCCCCCCCCCCC(=O)NC1CCN(C(=O)C2Sc3ccccc3N(CC)C2=O)CC1 (configuration not stated)
inhibition in vivo at 30 mg/kg [1]: 37.8%
inhibition [2]: 7%
inhibition [3]: -8%
inhibition [4]: -7%
inhibition [5]: 12%
inhibition [6]: 36%
inhibition [7]: 19.6%
inhibition [8]: 13%
inhibition [9]: 3.2%
inhibition [10]: 33.8%
Activity [11]: Dose-dependent effect
Activity [12]: Non-Toxic
